Assay results taken from patent US6677141B2, “Edible compositions of Bacillus subtilis natto cells containing water-soluble vitamin K” (Honda Trading Corporation, priority 1998, dated 2004).

Tests used:
[1] = Photostability: amount of MK-7 on exposure to the light from a fluorescent lamp; type: physicochemical; settings: room temperature
Procedure: This dry MK-7 was exposed to the light from a fluorescent lamp at room temperature for 5 hours. In this case, the amount of MK-7 was measured along the course of time in the same manner as in Example 6. The results are shown in FIG. 7 (indicated by empty circle (◯) marks).
The fat-soluble MK-7 thus prepared was dried to obtain a dry product of MK-7. This dry product of MK-7 was irradiated with the light from a fluorescent lamp at room temperature for 5 hours and then tested for the fat-soluble MK-7 content in the same manner as in Example 6. The results are shown in FIG. 7 (indicated by filled square (▪) marks).

[2] = MK-7 level in plasma after oral ingestion by healthy adults (HPLC); type: in vivo, human (healthy adults)
Procedure: The measurement of the amounts of MK-7, MK-4, and vitamin K1 by the high-performance liquid chromatography (HPLC) makes use of the phenomenon that vitamin K is reduced by a platinum-alumina catalyst into a hydroquinone compound and made to form a fluorescent substance. To be more specific, this measurement is carried out under the following conditions.
Then, five healthy adults were each caused to ingest 1 g of the dry cells at 10 o'clock every morning. After the elapse of a prescribed interval, blood was collected from each of the healthy adults and was tested for MK-7 level in the plasma. The time-course changes of MK-7 level in the plasma were investigated.
Five healthy adults were each caused to ingest 1 g of dry cells (containing 1.8×10^10 live cells) of Nitto strain (made by Nitto Yakuhin Kogyo K.K. in Kyoto) at 10 o'clock every morning. Then, blood was collected from the adults along the course of time. The plasma was separated from the collected blood and tested for MK-7 level in the plasma in the same manner as in Example 1.
As a control, five healthy adults were caused to ingest purified MK-7 in place of the dry cells of Bacillus subtilis natto mentioned above. The plasma similarly obtained from each of the healthy adults was tested for MK-7 level in the plasma.
The cultured product thus obtained was washed with distilled water and then freeze-dried. Five healthy adults (A to E) were each caused to ingest an enteric capsule in which 1 g of freeze-dried product (containing 5×10^11 cells/g of dried product) was filled. In this case, the MK-7 content was determined by the Soxhlet-HPLC method method, to find to be 708.0 μg/g of dried product. At prescribed points, blood was collected from the adults along the course of time. The plasma MK-7 level was tested in the same manner as in Example 1.
Five healthy adults (21 to 63 years old, male) requested to abstain from breakfast were each made to ingest 1,000 μg of the water-soluble vitamin K derivative containing the water-soluble MK-7 derivative prepared in Example 9 at 10 o'clock in the morning. Blood was collected from the healthy adults along the course of time after the ingestion and measured for the level of the water-soluble MK-7 derivative in plasma. As a control, the experiment was repeated with the ingestion of 1,000 μg of purified MK-7 instead.

[3] = oral, 1 g dry cells (about 1.8 × 10^10 cells/g) or about 51.0 μg purified MK-7, average ± SD, n = 5

Row | SMILES | Exposure time to the fluorescent lamp after which the amount of MK-7 could not be measured [1] | Level in plasma on the 24th hour after the ingestion ([2]; Example 14, oral 1,000 μg) | Concentration of MK-7 in plasma (after the elapse of) 0 hour ([2]; before ingestion, oral, 1 g dry cells (about 1.8 × 10^10 cells/g) or about 51.0 μg purified MK-7, average ± standard deviation, n = 5) | Concentration of MK-7 in plasma (after the elapse of) 4 hours [2, 3] | Concentration of MK-7 in plasma (after the elapse of) 8 hours [2, 3] | Concentration of MK-7 in plasma (after the elapse of) 12 hours [2, 3] | Concentration of MK-7 in plasma (after the elapse of) 24 hours [2, 3] | Concentration of MK-7 in plasma (after the elapse of) 32 hours [2, 3] | Concentration of MK-7 in plasma (after the elapse of) 48 hours [2, 3]
1 | CC(C)=CCC/C(C)=C/CC/C(C)=C/CC/C(C)=C/CC/C(C)=C/CC/C(C)=C/CC/C(C)=C/CC1=C(C)C(=O)c2ccccc2C1=O [fat-soluble MK-7] | about 3 hours | – | – | – | – | – | – | – | –
2 | CC(C)=CCC/C(C)=C/CC/C(C)=C/CC/C(C)=C/CC/C(C)=C/CC/C(C)=C/CC/C(C)=C/CC1=C(C)C(=O)c2ccccc2C1=O [Purified MK-7, menaquinone-7] | – | 3.2 ± 2.3 ng/mL | 1.3 ± 1.1 | 11.2 ± 2.8 | 7.3 ± 1.6 | 4.3 ± 1.0 | 2.2 ± 1.0 | 1.4 ± 0.7 ^┘ | 1.4 ± 0.9 ^┘
